Source: patent US20120065063A1, “3-Aryl-4-(2,6-dimethylbenzylidene)isoxazol-5(4H)-ones as Fungicides” (Bayer CropScience AG, priority 2010, published 2012)

Legend:
[1] = tested on: Blumeria graminis f.sp. tritici; assay: Blumeria test (wheat)/protective; format: in vivo; conditions: protective, 1000 ppm, evaluation 7 days after inoculation
Description: Blumeria Test (Wheat)/Protective [table] To produce an appropriate active compound formulation, I part by weight of active compound is mixed with the specified amounts of solvent and emulsifier, and the concentrate is diluted with water to the desired concentration. To test for protective activity, young plants are sprayed with the preparation of active compound at the stated application rate. After the spray coating has dried on, the plants are dusted with spores of Blumeria graminis f.sp. tritici.

Venturia inaequalis = assay: Venturia test (apple)/protective; format: in vivo; conditions: protective, 100 ppm, evaluation 10 days after inoculation
Description: Venturia Test (Apple)/Protective [table] To produce an appropriate active compound formulation, 1 part by weight of active compound is mixed with the specified amounts of solvent and emulsifier, and the concentrate is diluted with water to the desired concentration. To test for protective efficacy, young plants are sprayed with the active compound formulation at the stated application rate. After the spray coating has dried on, the plants are inoculated with an aqueous conidia suspension of the apple scab pathogen Venturia inaequalis and then remain in an incubation cabin at about 20° C. and 100% relative atmospheric humidity for 1 day. The plants are then placed in the greenhouse at about 21° C. and a relative atmospheric humidity of about 90%.

Plasmopara viticola = assay: Plasmopara test (grapevine)/protective; format: in vivo; conditions: protective, 100 ppm, evaluation 6 days after inoculation
Description: Plasmopara Test (Grapevine)/Protective [table] To produce an appropriate active compound formulation, I part by weight of active compound is mixed with the specified amounts of solvent and emulsifier, and the concentrate is diluted with water to the desired concentration. To test for protective efficacy, young plants are sprayed with the active compound formulation at the stated application rate. After the spray coating has dried on, the plants are inoculated with an aqueous spore suspension of Plasmopara viticola and then remain in an incubation cabin at about 20° C. and 100% relative atmospheric humidity for 1 day. The plants are then placed in a greenhouse at about 21° C. and about 90% atmospheric humidity for 4 days. The plants are then moistened and placed in an incubation cabin for 1 day.

Alternaria solani = assay: Alternaria test (tomato)/protective; format: in vivo; conditions: protective, 500 ppm, evaluation 7 days after inoculation
Description: Alternaria Test (Tomato)/Protective [table] To produce an appropriate active compound formulation, 1 part by weight of active compound is mixed with the specified amounts of solvent and emulsifier, and the concentrate is diluted with water to the desired concentration. To test for protective activity, young tomato plants are sprayed with the preparation of active compound at the stated application rate. 1 day after the treatment, the plants are inoculated with a spore suspension of Alternaria solani and then remain at 100% relative humidity and 20° C. for 24 h. The plants then remain at 96% relative atmospheric humidity and a temperature of 20° C.

Sphaerotheca fuliginea = assay: Sphaerotheca test (cucumber)/protective; format: in vivo; conditions: protective, 500 ppm, evaluation 7 days after inoculation
Description: Sphaerotheca Test (Cucumber)/Protective [table] To produce an appropriate active compound formulation, 1 part by weight of active compound is mixed with the specified amounts of solvent and emulsifier, and the concentrate is diluted with water to the desired concentration. To test for protective activity, young cucumber plants are sprayed with the preparation of active compound at the stated application rate. 1 day after the treatment, the plants are inoculated with a spore suspension of Sphaerotheca fuliginea. The plants are then placed in a greenhouse at 70% relative atmospheric humidity and a temperature of 23° C.

Leptosphaeria nodorum = assay: In vitro test for determining the ED50 value with Leptosphaeria nodorum; format: cell-based; conditions: 50% inhibition of fungal growth, microtitre plates, 6 days, 20° C.
Description: In Vitro Test for Determining the ED50 Value with Leptosphaeria nodorum The cavities of 96-well microtitre plates are filled with 1.5 μl of a solution of the test compounds in DMSO. 150 μl of a glucose/peptone medium comprising the spores of the test fungus in a suitable concentration are introduced into each cavity. The test compounds in the microtitre cavities are used in concentrations of 20, 6, 2 and 0.6 ppm. The absorbance is determined photometrically at 620 nm. The microtitre plates are left at 20° C. and 85% relative atmospheric humidity for 6 days. Once the incubation time has passed, the growth of the test organisms is determined photometrically at a wavelength of 620 nm. The difference in absorbances before and after the incubation corresponds to the growth of the test fungi. Based on the difference of the absorbances at the various test concentrations and the difference of the absorbances of the untreated control, a dose/activity curve is calculated. The concentration required to inhibit fungal growth by 50% is determined and reported as ED50 value (=Effective Dose which causes 50% inhibition of growth) in ppm (=mg/l).

[2] = log P by HPLC on reversed-phase columns (EEC directive 79/831 Annex V.A8); format: physicochemical; conditions: acidic range pH 2.7, 0.1% aqueous formic acid/acetonitrile
Description: The log P values were measured according to EEC directive 79/831 Annex V.A8 by HPLC (High Performance Liquid Chromatography) on reversed-phase columns (C 18), using the method below:
The determination was carried out in the acidic range at pH 2.7 using the mobile phases 0.1% aqueous formic acid and acetonitrile; linear gradient from 10% acetonitrile to 95% acetonitrile.

Spodoptera frugiperda = Spodoptera frugiperda test (spray treatment); format: in vivo; conditions: maize leaf discs, 500 g/ha
Description: Spodoptera frugiperda Test (Spray Treatment) [table] To produce a suitable preparation of active compound, 1 part by weight of active compound is mixed with the stated amounts of solvents and emulsifier, and the concentrate is diluted with emulsifier-containing water to the desired concentration. Discs of maize leaves (Zea mays) are sprayed with an active compound preparation of the desired concentration and, after drying, populated with caterpillars of the armyworm (Spodoptera frugiperda). After the desired period of time, the effect in % is determined. 100% means that all caterpillars have been killed; 0% means that none of the caterpillars have been killed.

Meloidogyne incognita = assay: Meloidogyne test (spray treatment); format: in vivo; conditions: lettuce, 20 ppm
Description: Meloidogyne Test (Spray Treatment) [table] To prepare a suitable active compound preparation, 1 part by weight of active compound is mixed with the stated amount of solvent and the concentrate is diluted with water to the desired concentration. Containers are filled with sand, solution of active compound, Meloidogyne incognita egg/larvae suspension and lettuce seeds. The lettuce seeds germinate and the plants develop. On the roots, galls are formed. After the desired period of time, the nematicidal action is determined in % by the gall formation. 100% means that no galls have been found; 0% means that the number of galls on the treated plants corresponds to that of the untreated control.

SMILES | efficacy [1] [%] | efficacy (Venturia inaequalis) [%] | efficacy (Plasmopara viticola) [%] | efficacy (Alternaria solani) [%] | efficacy (Sphaerotheca fuliginea) [%] | ED50 (Leptosphaeria nodorum) [ppm] | log P [2] | activity (caterpillars killed) (Spodoptera frugiperda) [%] | activity (nematicidal action by gall formation) (Meloidogyne incognita) [%]
O=C1ON=C(c2ccccc2)C1=Cc1ccc(Cl)cc1 [Compound A-2] | 29 | 16 | 38 | 0 | 20 | – | – | – | –
CC1=NOC(=O)C1=Cc1ccccc1 [Compound A-3] | 57 | 48 | 55 | 0 | 30 | – | – | – | –
CC1=NOC(=O)C1=Cc1ccc(C)cc1 [Compound A-4] | 43 | 9 | 35 | 0 | 30 | 14 | – | – | –
COc1ccc(C=C2C(=O)ON=C2C)cc1 [Compound A-5] | 29 | 59 | 40 | 0 | 40 | – | – | – | –
O=C1ON=C(c2ccccc2)C1=Cc1ccccc1Cl [Compound A-6] | 29 | 14 | 38 | 0 | 50 | – | – | – | –
CC1=NOC(=O)C1=Cc1ccc(N(C)C)cc1 [Compound A-7] | 0 | 0 | 45 | 0 | 10 | – | – | – | –
CC1=NOC(=O)/C1=C\c1ccco1 [Compound A-8] | 29 | 6 | 28 | 0 | 0 | – | – | – | –
Cc1cc(C)c(C=C2C(=O)ON=C2c2c(F)cccc2F)c(C)c1 [Compound I-24] | – | – | – | – | – | – | 4.09 | ≥ 80 | –
Cc1cc(C)c(C=C2C(=O)ON=C2c2ccc(Cl)cc2)c(C)c1 [Compound I-70] | – | – | – | – | – | – | 4.50 | – | ≥ 80
